Data set [1] in a line: Lipophilicity, log D of the compound at pH 7.4. Type of data set: physicochemical. To be noted: buffer.
The nature of data set [2]: Permeability of the compound by PAMPA. Type of data set: ADME. The note with it: read-out: permeability. In general terms: The PAMPA barrier holds no transporters, so it reflects passive diffusion.
Data set [3] is described as follows: Oral bioavailability in mouse at 10 mg/kg. To be noted: in vivo. It counts as ADME, organism-based.
Data set [4] concerns the target Type 1 fimbrin D-mannose specific adhesin (Escherichia coli K-12) (UniProt P08191). The data set is described as follows: Inhibition of Escherichia coli UTI89 FimH assessed as reduction in […] guinea pig erythrocyte hemagglutination titer.
A short description of data set [5]: Metabolic stability in mouse liver microsomes after 30 mins. To be noted: read-out: Stability. Type of data set: ADME, microsome. Background: Liver microsomes are a subcellular fraction often used to study metabolism.
Data set [6] can be described thus: Drug excretion in mouse urine at 10 mg/kg, po or 2 mg/kg, iv. It counts as ADME, organism-based. To be noted: read-out: Drug excretion.
The nature of data set [7]: Solubility of the compound in pH 6.8 JP2 buffer. It counts as physicochemical.
Data set [8] has as its target hERG (KCNH2) (Homo sapiens, UniProt Q12809). Kind of data set: Inhibition of human ERG at 100 uM relative to control.
Data set [9] relates to Escherichia coli. Kind of data set: Antibacterial activity against Escherichia coli UTI89 in mouse prophylactic UTI model assessed as reduction in bacterial count in urinary bladder at 1 to 100 mg/kg, po administered 30 mins prior to infection measured at 2 and 24 hrs post infection. It counts as functional, organism-based.
The subject of data set [10] is Escherichia coli. The data set is described as follows: Antibiofilm activity against Escherichia coli UTI89 preformed biofilms. It counts as functional, organism-based.
The subject of data set [11] is Escherichia coli. Kind of data set: Antibiofilm activity against Escherichia coli UTI89. It counts as functional, organism-based.
Data set [12] is described as follows: Mechanism based inactivation of CYP450 (unknown origin). Type of data set: ADME. The note with it: human.
Data set [13] deals with Mus musculus. The data set is described as follows: Time at which simulated urine concentration stays above its HAI titer in mouse at 1 to 100 mg/kg, po. It counts as ADME, organism-based. To be noted: in vivo.

SMILES strings stand for the structures. Values after ≈ are worked out from the molar mass of the structure shown. Active and inactive are the calls of the source. The rule behind the calls is not given here.

Type 1 fimbrin D-mannose specific adhesin (Escherichia coli K-12), sequence (P08191 whole entry): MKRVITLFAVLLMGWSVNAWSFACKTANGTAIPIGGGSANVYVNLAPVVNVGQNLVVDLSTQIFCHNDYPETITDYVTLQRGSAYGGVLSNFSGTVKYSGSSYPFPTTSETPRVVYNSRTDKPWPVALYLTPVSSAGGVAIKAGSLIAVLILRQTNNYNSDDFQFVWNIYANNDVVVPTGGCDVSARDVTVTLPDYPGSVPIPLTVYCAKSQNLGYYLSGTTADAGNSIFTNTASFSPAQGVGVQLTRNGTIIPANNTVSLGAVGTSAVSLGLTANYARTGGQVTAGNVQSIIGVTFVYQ
hERG (KCNH2), sequence (Q12809 whole entry): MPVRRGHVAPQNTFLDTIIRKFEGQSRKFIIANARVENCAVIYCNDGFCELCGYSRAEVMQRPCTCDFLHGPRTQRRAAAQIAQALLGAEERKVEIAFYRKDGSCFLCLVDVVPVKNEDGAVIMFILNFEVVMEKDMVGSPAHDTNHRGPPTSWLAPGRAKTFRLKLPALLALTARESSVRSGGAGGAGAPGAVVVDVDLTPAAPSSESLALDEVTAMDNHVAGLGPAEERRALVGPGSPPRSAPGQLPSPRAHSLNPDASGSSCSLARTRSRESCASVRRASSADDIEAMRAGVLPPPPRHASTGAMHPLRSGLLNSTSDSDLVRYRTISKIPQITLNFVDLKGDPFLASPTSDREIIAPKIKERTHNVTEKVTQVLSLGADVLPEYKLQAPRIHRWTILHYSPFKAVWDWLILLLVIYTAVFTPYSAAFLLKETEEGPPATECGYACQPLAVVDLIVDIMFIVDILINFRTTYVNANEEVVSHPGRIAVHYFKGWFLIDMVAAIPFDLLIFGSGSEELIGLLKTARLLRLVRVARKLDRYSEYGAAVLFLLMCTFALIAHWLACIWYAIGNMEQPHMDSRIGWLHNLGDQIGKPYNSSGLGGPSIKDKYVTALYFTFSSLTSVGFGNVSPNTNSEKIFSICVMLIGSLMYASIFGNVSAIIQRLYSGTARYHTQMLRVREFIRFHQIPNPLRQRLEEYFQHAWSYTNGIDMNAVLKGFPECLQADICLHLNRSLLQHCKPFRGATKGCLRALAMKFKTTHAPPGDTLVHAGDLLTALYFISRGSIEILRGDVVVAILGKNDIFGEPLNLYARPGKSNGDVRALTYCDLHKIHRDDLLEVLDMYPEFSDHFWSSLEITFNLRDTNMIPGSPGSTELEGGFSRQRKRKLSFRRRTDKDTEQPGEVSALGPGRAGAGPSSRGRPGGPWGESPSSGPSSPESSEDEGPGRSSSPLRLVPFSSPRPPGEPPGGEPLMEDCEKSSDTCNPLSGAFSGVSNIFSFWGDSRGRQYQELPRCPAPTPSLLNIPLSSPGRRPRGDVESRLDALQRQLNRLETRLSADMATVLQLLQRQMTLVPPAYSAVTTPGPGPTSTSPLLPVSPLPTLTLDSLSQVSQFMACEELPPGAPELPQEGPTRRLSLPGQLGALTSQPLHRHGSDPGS

The term logD denotes lipophilicity at a set pH, counting ionised and neutral species. A higher logD goes with higher lipophilicity. The term bioavailability denotes the share of a dose that reaches the circulation, judged against a reference dose that is usually intravenous. Low values mean little systemic uptake, high ones much systemic uptake. A word on the EC90: it is the point of the concentration-response curve where the effect stands at 90%. A word on the solubility: it is the concentration that dissolves in the medium under given conditions. A low value points to a poorly soluble substance. In data set [1], `Cc1cc(-c2ccc(=O)n(CC(C)(C)O)c2)ccc1S[C@H]1O[C@H](CO)[C@@H](O)[C@H](O)[C@@H]1O` had a logD of 0.5. For the same molecule, the Papp in data set [2] is at most 12 ×10⁻⁶ cm/s. The molecule further displayed a bioavailability in data set [3] of 0%. In addition, the EC90 in data set [4] came to 1250 nM. For the same molecule, the remaining at 0.5 h in [5] turned out to be 97%. Moreover, in data set [6], the dose excreted came to 5.3%. This molecule yielded a solubility in data set [7] of 729 µg/mL (≈ 1610 µM).

In data set [1], `Cc1cc(-c2ccc(N3CCC3)nc2)ccc1S[C@H]1O[C@H](CO)[C@@H](O)[C@H](O)[C@@H]1O` showed a logD of 2.1. Further, the bioavailability in [3] was 14%. Besides, the EC90 in data set [4] was determined as 1250 nM. Besides, in [5], the remaining at 0.5 h is 91%. The dose excreted in data set [6] worked out at 7%. Besides, the solubility in [7] was 217 µg/mL (≈ 518 µM).

Take `Cc1cc(-c2ccc(=O)n(-c3ccccc3)c2)ccc1S[C@H]1O[C@H](CO)[C@@H](O)[C@H](O)[C@@H]1O`: the logD in data set [1] was determined as 1.2. The Papp in data set [2] was at most 12 ×10⁻⁶ cm/s. In data set [3], the bioavailability stood at 15%. Also, in data set [4], the concentration for an effect of 90% (EC90) stood at 1250 nM. Also, the remaining at 0.5 h in data set [5] came to 93%. Besides, the dose excreted in [6] worked out at 24%. Further, the solubility in [7] came to 142 µg/mL (≈ 312 µM).

The molecule `CCn1cc(-c2ccc(S[C@H]3O[C@H](CO)[C@@H](O)[C@H](O)[C@@H]3O)c(C)c2)ccc1=O` registered a logD in data set [1] of 0.7. The Papp in data set [2] was at most 12 ×10⁻⁶ cm/s. In data set [4], the concentration for an effect of 90% (EC90) is 2500 nM. Moreover, the remaining at 0.5 h in [5] is 100%. In [7], the concentration in solution (solubility) was 668 µg/mL (≈ 1640 µM).

For `CCCCn1cc(-c2ccc(S[C@H]3O[C@H](CO)[C@@H](O)[C@H](O)[C@@H]3O)c(C)c2)ccc1=O`, the logD in data set [1] turned out to be 1.7. Moreover, in data set [2], the Papp is at most 12 ×10⁻⁶ cm/s. For the same molecule, in data set [3], the bioavailability is 3%. Further, the EC90 in [4] stood at 600 nM. Further, in data set [5], the remaining at 0.5 h was 95%. Moreover, in data set [6], the dose excreted was determined as 7%. In [7], this molecule displayed a solubility of 740 µg/mL (≈ 1700 µM).

As for `CCCCn1ccc(-c2ccc(S[C@H]3O[C@H](CO)[C@@H](O)[C@H](O)[C@@H]3O)c(C)c2)cc1=O`, in data set [1], the log distribution coefficient (logD) was determined as 1.8. The Papp in data set [2] was at most 12 ×10⁻⁶ cm/s. In data set [3], this molecule showed a bioavailability of 1%. The EC90 in data set [4] is 600 nM. Besides, in data set [5], the remaining at 0.5 h was 60%. Further, the solubility in data set [7] was found to be 582 µg/mL (≈ 1340 µM).

For orientation: inhibition means the relative decrease from the control value, in per cent. Higher therefore signals a strong effect. The term IC50 denotes the concentration at which inhibition is half-maximal. In [8], `COc1ccc(-c2ccc(S[C@H]3O[C@H](CO)[C@@H](O)[C@H](O)[C@@H]3O)c(C)c2)cn1` registered an inhibition at 100 µM of 10.8%. Moreover, in data set [1], the logD came to 2.1. The result in data set [9] was Active. Also, in [2], the Papp was in the range of 12 to 30 ×10⁻⁶ cm/s. For the same molecule, the half-maximal inhibitory concentration (IC50) was determined as 0.56 µg/mL (≈ 1.42 µM) in data set [10] and 0.3 µg/mL (≈ 0.762 µM) in data set [11]. Besides, the bioavailability in data set [3] was determined as 86%. Besides, the EC90 in data set [4] stood at 310 nM. In data set [5], the remaining at 0.5 h worked out at 100%. In addition, in data set [12], the Activity result is given as “Not Active”. Besides, in [13], the Time entry is on record as “<= 24 hr”. Besides, the dose excreted in [6] stood at 2.8%. The molecule further registered a solubility in data set [7] of 663 µg/mL (≈ 1690 µM).

As for `Cc1cc(-c2ccc(=O)n(CC(C)C)c2)ccc1S[C@H]1O[C@H](CO)[C@@H](O)[C@H](O)[C@@H]1O`, the logD in data set [1] came out at 1.5. For the same molecule, the Papp in data set [2] is at most 12 ×10⁻⁶ cm/s. The molecule further returned a bioavailability in data set [3] of 1%. For the same molecule, the EC90 in data set [4] was found to be 2500 nM. Also, the remaining at 0.5 h in [5] stood at 95%. In addition, the dose excreted in data set [6] was determined as 8.1%. In [7], this molecule yielded a solubility of 863 µg/mL (≈ 1980 µM).

Regarding `CSc1ccc(-c2ccc(S[C@H]3O[C@H](CO)[C@@H](O)[C@H](O)[C@@H]3O)c(C)c2)cn1`, in data set [1], the pH-dependent lipophilicity (logD) turned out to be 2.3. Besides, the Papp in data set [2] is at most 12 ×10⁻⁶ cm/s. In addition, the bioavailability in [3] was determined as 23%. Moreover, the EC90 in data set [4] is 600 nM. Also, the remaining at 0.5 h in data set [5] was found to be 61%. In addition, in data set [6], the dose excreted came to 11.7%. Besides, the solubility in [7] was determined as 150 µg/mL (≈ 366 µM).

`Cc1cc(-c2ccc(=O)n(C)c2)ccc1S[C@H]1O[C@H](CO)[C@@H](O)[C@H](O)[C@@H]1O`: the log distribution coefficient (logD) in data set [1] was found to be 0.3. Also, in [2], the Papp was at most 12 ×10⁻⁶ cm/s. Moreover, the EC90 in data set [4] is 1250 nM. In addition, the remaining at 0.5 h in data set [5] is 72%. The amount in solution in [7] (solubility) came to 719 µg/mL (≈ 1830 µM).
